Molecular target: LFA-1 (Homo sapiens, UniProt P20701)
Assay: Affinity (KD) of derivatives for LFA-1
Format: binding
Conditions: affinity for LFA-1; read-out: KD (Affinity constant)

LFA-1, sequence (P20701 26-1170): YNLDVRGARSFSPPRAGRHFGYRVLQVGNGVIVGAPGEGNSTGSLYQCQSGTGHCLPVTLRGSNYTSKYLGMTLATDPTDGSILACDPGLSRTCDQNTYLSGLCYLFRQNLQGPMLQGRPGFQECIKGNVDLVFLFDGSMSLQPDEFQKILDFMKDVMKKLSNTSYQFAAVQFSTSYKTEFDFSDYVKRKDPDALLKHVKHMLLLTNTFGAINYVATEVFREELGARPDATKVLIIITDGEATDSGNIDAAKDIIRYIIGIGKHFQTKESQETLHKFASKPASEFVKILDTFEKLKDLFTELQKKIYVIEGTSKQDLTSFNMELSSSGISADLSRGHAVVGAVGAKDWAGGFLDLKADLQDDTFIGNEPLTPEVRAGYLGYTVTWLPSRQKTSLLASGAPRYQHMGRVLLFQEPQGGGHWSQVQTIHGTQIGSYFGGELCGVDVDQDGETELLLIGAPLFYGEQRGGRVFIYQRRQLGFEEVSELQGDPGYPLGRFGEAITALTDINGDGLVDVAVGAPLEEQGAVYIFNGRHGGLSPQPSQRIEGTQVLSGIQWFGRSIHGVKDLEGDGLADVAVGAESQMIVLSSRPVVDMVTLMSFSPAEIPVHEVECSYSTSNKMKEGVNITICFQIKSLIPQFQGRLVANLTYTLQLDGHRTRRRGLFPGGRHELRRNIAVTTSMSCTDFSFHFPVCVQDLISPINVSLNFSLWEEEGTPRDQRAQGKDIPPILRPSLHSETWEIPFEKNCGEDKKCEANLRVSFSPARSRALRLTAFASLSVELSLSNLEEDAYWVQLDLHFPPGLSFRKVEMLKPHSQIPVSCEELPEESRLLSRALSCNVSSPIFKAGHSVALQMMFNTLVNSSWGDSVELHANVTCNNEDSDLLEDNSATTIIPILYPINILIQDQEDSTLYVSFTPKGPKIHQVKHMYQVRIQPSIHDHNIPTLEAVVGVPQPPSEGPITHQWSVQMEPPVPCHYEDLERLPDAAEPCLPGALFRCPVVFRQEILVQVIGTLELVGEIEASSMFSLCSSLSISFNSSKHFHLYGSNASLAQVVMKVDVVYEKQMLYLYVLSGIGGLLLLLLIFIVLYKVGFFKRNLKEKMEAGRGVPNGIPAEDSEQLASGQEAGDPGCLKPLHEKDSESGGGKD
LFA-1, sequence (P05107 23-769 partner): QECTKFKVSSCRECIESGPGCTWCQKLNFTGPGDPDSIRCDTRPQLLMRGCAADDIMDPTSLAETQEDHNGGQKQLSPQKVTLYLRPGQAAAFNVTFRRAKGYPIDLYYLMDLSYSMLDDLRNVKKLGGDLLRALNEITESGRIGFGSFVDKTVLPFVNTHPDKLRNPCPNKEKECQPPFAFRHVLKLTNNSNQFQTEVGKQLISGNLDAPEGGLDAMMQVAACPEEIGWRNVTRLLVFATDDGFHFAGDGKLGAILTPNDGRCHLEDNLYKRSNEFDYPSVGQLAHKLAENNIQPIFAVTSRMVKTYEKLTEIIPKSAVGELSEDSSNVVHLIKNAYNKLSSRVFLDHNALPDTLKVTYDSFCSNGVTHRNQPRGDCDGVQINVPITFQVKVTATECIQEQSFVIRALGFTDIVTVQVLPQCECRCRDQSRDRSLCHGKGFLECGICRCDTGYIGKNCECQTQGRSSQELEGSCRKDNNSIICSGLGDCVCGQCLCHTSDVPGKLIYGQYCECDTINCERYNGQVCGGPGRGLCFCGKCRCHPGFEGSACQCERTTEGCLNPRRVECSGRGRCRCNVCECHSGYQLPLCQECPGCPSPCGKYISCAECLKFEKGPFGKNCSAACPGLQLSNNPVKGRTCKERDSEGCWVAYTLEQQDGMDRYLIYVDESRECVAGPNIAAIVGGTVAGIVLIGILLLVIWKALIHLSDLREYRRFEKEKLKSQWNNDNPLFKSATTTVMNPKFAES

Compound | Kd
O=C1N[C@@H](Cc2ccccc2)C(=O)N1c1cc(Cl)cc(Cl)c1 [JEB I-18] | 3650 nM
O=C1N[C@H](Cc2ccccc2)C(=O)N1c1cc(Cl)cc(Cl)c1 [JEB I-19] | 620 nM
CN1C(=O)N(c2cc(Cl)cc(Cl)c2)C(=O)[C@H]1Cc1ccccc1 [JEB I-22] | 1230 nM
CN1C(=O)N(c2cc(Cl)cc(Cl)c2)C(=O)[C@@H]1Cc1ccccc1 [JEB I-24] | 1200 nM

Second part, the compound after the results:

Kd | Compound
115 nM | 5-(4-bromobenzyl)-3-(3,5-dichlorophenyl)-5-methyl-imidazolidine-2,4-dione-1-(1-butyl-4-fluoresceincarbamide) [Fluorescein- Butylamino- Nor-BIRT]
75 nM | C[C@@]1(Cc2ccc(Br)cc2)C(=O)N(c2cc(Cl)cc(Cl)c2)C(=O)N1CCCCN [Butylamino- Nor-BIRT, 1-(4-aminobutyl)-5-(4-bromobenzyl)-3-(3,5-dichlorophenyl)-5-methyl-imidazolidine-2,4-dione]
